Data on 6 compounds can be found in patent US10702513B2, “Methods of treating pain and inducing analgesia” (NEW YORK UNIVERSITY, priority 2012, dated 2020).

Entries after “also recorded” stand apart in the source; their conditions may differ. Where two headings read alike, the source gives them in different places.

For assay [1] the following is noted: cited from earlier work; for antidepressant effects: literature (Sekiguchi 2002; Quirk 2002); for antidepressant effect on pain-induced depression: SNI model, Wang et al. 2011.
The target in assay [2] is GluA2-lacking AMPA receptors (Homo sapiens, UniProt P42261). The note with it: cited from earlier work; for potentiation of CPARs and calcium impermeable AMPA receptors: literature (Sekiguchi 2002; Quirk 2002).
GluA2-lacking AMPA receptors, sequence (P42261 19-906): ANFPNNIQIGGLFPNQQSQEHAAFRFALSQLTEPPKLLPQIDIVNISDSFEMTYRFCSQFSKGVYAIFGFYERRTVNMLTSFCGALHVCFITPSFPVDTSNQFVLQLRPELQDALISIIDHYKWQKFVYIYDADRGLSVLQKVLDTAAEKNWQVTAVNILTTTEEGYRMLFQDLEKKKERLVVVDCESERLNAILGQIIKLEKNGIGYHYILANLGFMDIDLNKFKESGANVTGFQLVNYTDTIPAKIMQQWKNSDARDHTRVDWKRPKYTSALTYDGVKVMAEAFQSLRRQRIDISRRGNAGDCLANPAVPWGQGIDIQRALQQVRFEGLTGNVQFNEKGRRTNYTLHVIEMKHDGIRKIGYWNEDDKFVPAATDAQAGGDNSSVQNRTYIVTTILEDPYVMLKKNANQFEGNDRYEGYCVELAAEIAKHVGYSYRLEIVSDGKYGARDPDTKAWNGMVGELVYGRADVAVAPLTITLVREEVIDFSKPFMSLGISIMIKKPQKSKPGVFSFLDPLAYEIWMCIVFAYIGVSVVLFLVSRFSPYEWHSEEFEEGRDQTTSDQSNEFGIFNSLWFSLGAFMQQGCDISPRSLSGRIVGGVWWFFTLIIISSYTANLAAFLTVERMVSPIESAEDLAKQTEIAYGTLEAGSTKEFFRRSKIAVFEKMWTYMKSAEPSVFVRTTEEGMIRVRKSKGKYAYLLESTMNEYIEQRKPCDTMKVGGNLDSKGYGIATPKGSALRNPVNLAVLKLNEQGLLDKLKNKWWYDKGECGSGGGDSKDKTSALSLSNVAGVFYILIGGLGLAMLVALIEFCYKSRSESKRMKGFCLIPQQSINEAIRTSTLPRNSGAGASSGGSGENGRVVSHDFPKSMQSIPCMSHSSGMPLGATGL
Assay [3] has as its system SNI-treated rats. The assay can be described thus: Mechanical hypersensitivity / allodynia (von Frey filaments), SNI model. Type of assay: in vivo, rat. The note with it: for sensory hypersensitivity: administered directly into the NAc; for mechanical allodynia: 30 minutes after drug. The protocol: (§1) To block CPARs locally in the NAc, microcannulas were stereotactically implanted bilaterally into the NAc, a technique well established (Carr, et al., Neuroscience 2010; 165: 1074-86). The NAc has anatomically distinct core and shell regions, both of which are involved in mood regulation. […] Sensory hypersensitivity was measured using von Frey filaments (Wang, et al. Anesthesiology 2011; 115: 812-821), whereas locomotion tests were performed using standard protocols (Carr, et al., Pschopharmacology (Berl) 2009; 201: 495-506).
(§2) The Spared Nerve Injury (SNI) surgery was previously described in detail (Wang et al. Anesthesiology 2011, 115: 812-821). Briefly, under Isoflurane anesthesia (1.5 to 2%), the skin on the lateral surface of the right thigh of rat was incised and a section made through the biceps femoris muscle to expose three branches of the sciatic nerve: sural, common peroneal and tibial nerves. The common peroneal and tibial nerves were tied with non-absorbent 5.0 silk sutures at the point of trifurcation. The nerves were then cut distal to the knot, and about 3 to 5 mm of the distal ends were removed. Muscle layer was then sutured close, while skin was stapled. Staples were removed prior to behavioral testing.
A traditional Dixon up-down method with von Frey filaments was used to measure mechanical allodynia (Wang et al. Anesthesiology 2011, 115: 812-821). In brief, rats were individually placed into plexiglass chambers over a mesh table and acclimated for 20 min before the onset of examination. Beginning with 2.55 g, von Frey filaments in a set with logarithmically incremental stiffness (0.45, 0.75, 1.20, 2.55, 4.40, 6.10, 10.50, 15.10 g) were applied to the lateral ⅓ of right paws (in the distribution of the sural nerve) of animals at least 14 days after SNI surgery, and observers were blinded to the test conditions (CX546 vs. DMSO treatments).

For assay [4], the system named is SNI-treated rats. The assay can be described thus: Cold hypersensitivity / allodynia (acetone), SNI model. Type of assay: in vivo, rat. The source says: Briefly, under Isoflurane anesthesia (1.5 to 2%), the skin on the lateral surface of the right thigh of rat was incised and a section made through the biceps femoris muscle to expose three branches of the sciatic nerve: sural, common peroneal and tibial nerves. The common peroneal and tibial nerves were tied with non-absorbent 5.0 silk sutures at the point of trifurcation. The nerves were then cut distal to the knot, and about 3 to 5 mm of the distal ends were removed. Muscle layer was then sutured close, while skin was stapled. Staples were removed prior to behavioral testing.
Animals were individually placed into plexiglass chambers as above and acclimated for 20 min. A drop of acetone was applied to the lateral plantar surface of the paws (in the distribution of the sural nerve). […] 0: no visible response or startle response lasting <0.5 second; 1: paw withdrawal lasting <5 seconds; 2: withdrawal lasting 5 to 10 seconds, +/− licking of the paws; 3: prolonged repetitive withdrawal lasting >10 s. Acetone was applied 5 times to each paw, and an average score was calculated.

Assay [5] has as its system SNI-treated rats. The assay can be described thus: Sucrose preference test (depression-like behavior) after intra-NAc administration, SNI model. It counts as in vivo, rat.
Excerpt: After SNI, rats develop sensory hypersensitivity, as measured by increased withdrawal response to von Frey filaments (mechanical allodynia) and acetone (cold allodynia) (FIG. 5) (Wang, et al. Anesthesiology 2011; 115: 812-821). The sucrose preference test (SPT) and forced swim test (FST) are used to assess depression. Preference for sucrose over water is a normal hedonic response in rats, whereas a decreased sucrose preference on the SPT represents anhedonia, a typical feature of depression. […] Sham-operated rats only develop depression-like behavior in the immediate postoperative period (FIG. 6C), due to acute incisional pain. These experiments were repeated in the PI model, and sensory and depressive symptoms both develop within 24 hours after paw incision and resolve 7 days later (FIG. 7). Thus, in animal models both acute and chronic postoperative pain cause depressive behavior.
as §1

Assay [6] relates to SNI-treated rats. Particulars: Wang et al. 2011; cited from earlier work.
The test system of assay [7] is GluA1. Particulars: Li et al. 2010; cited from earlier work.
The subject of assay [8] is SNI-treated rats. Nature of the assay: Forced swim test, SNI model. It counts as in vivo, rat. Particulars: 10 mg/kg intraperitoneal, vs DMSO.
Excerpt: as §2
On the first session of the test, each animal was placed for fifteen minutes into a standard clear Porsolt chamber with water at 25° C. filled to 25 cm. Afterwards, the animal was taken out of the chamber, dried and put back in its home cage. 24 hours later, the animal was placed into the Porsolt chamber again under the same conditions for 5 min. Both sessions were videotaped, but only the second session was analyzed. Immobility was defined as a lack of movement of the hind paws lasting greater than 1 second. Two independent observers, examined and graded the total time of immobility for each rat, and the average grade was presented for each animal. FST was conducted 14 days after surgeries. […]

The mark [9] stands for this setting: injected into NAc core, SNI-treated rats.
Setting [10] is: administered directly into the NAc, SNI-treated rats, vs saline.
Setting [11] is: 10 mg/kg intraperitoneal, SNI rats, vs DMSO.

Turning to `CC(C)S(=O)(=O)NC[C@H](C)c1ccc(-c2ccc(C#N)cc2)cc1` [LY451646], the antidepressant effects result in assay [1] is “antidepressant effects”. The “potentiation of CPARs and calcium impermeable AMPA receptors” value in assay [2] is “potentiate both CPARs and calcium impermeable AMPA receptors”.
On to `NC(=O)COc1c(F)cc(SCCNS(=O)(=O)c2ccccc2)cc1F` [PEPA, 4-[2-(phenylsulfonylamino)ethylthio]-2,6-difluorophenoxyacetamide], for which the antidepressant effects result in assay [1] is “antidepressant effects”. For the same compound, the “potentiation of CPARs and calcium impermeable AMPA receptors” value in assay [2] is “potentiate both CPARs and calcium impermeable AMPA receptors”.
For `NCCCNCCCCNCCCNC(=O)Cc1cccc2ccccc12` [NASPM, 1-naphthyl acetyl spermine], in assay [3] (SNI-treated rats), the sensory hypersensitivity result is listed as “does not alter”. In addition, in assay [3] (setting [9]), the mechanical hypersensitivity entry was “does not change mechanical hypersensitivity; also recorded: did not alter; also recorded: no effects on mechanical hypersensitivity”. Also, in assay [4] (setting [9]), the cold hypersensitivity entry is listed as “did not alter”. For the same compound, the “sucrose preference (depression-like behavior)” value was “decrease in sucrose preference; also recorded: enhance depression-like behavior; also recorded: significant further decline in their already reduced sucrose preference; also recorded: reduces sucrose preference” in assay [5] (setting [10]) and “did not show this depression-like behavioral response” in assay [5] (injected into NAc core, sham-treated rats). The “average difference in sucrose preference between NASPM and saline treatment” value in assay [5] (based on preliminary data, used for power analysis, STD 0.15) was found to be 0.2.
On to `O=C1CCCN1` [2-pyrrolidinone], for which, in assay [3] (SNI-treated rats), the sensory hypersensitivity entry is “did not have any effect; also recorded: unaltered”. The “sucrose preference (depression-like behavior)” value in assay [5] (setting [10]) was “increased sucrose; also recorded: return of sucrose preference to near control (painless) levels”. In addition, in assay [2] (in vitro, Nishizaki et al. 2002), the “currents of GluA2-lacking AMPA receptors (CPAR currents)” value is listed as “specifically increase CPAR currents; also recorded: specifically increase the currents of GluA2-lacking AMPA receptors”.
For `CNC1(c2ccccc2Cl)CCCCC1=O` (stereo not shown) [ketamine], the sensory pain relief result in assay [6] is “without exerting long lasting sensory pain relief”. Further, the GluA1 levels result in assay [7] is on record as “increase GluA1 levels”. The “antidepressant effect on pain-induced depression” value in assay [1] is given as “antidepressant properties in the SNI model”; in assay [1] (listed as Ketamine) it was “effectively treat pain-induced depression”.
On to `O=C(c1ccc2c(c1)OCCO2)N1CCCCC1` [CX546], for which the “immobility on the forced swim test” value in assay [8] is listed as “significantly decreases immobility; also recorded: improves performance on the forced swim test”. Besides, in assay [3] (2.5 mg/kg, SNI rats, vs DMSO), the analgesic effect result is listed as “does not produce any statistically significant analgesic effect”. The mechanical allodynia entry in assay [3] (5 mg/kg intraperitoneal, SNI rats, vs DMSO) is “successfully relieves mechanical allodynia; also recorded: relieve mechanical allodynia”; in assay [3] (setting [11]) it was “successfully relieves mechanical allodynia; also recorded: relieve mechanical allodynia”. For the same compound, the cold allodynia result in assay [4] (setting [11]) was “relieves cold allodynia”.
